Patent US5204475A, “Substituted 3-aminosydnone imines and salts thereof” (Cassella Aktiengesellschaft, priority 1990, dated 1993)

Tested on: spiral strips of the pulmonary artery of the guinea-pig
Assay: Relaxation of potassium-depolarised, CaCl2-contracted spiral strips of the pulmonary artery of the guinea-pig (modified method of Godfraind and Kaba and of Schuman et al.)
Conditions: depolarised with 40 mmol/1 potassium, contraction by 0.5 mmol/1 CaCl2; for IC50: Cavia porcellus, cumulative addition, average of 4 to 6 vessel strips, read-out: IC50 (concentration of the test substance which inhibits the contraction by 50%)
Description: The pharmacological action of the compounds of the formula I was determined by a modified method of Godfraind and Kaba (Arch. Int. Pharmacodyn. Ther. I96, (Suppl) 35 to 49, 1972) and of Schuman et al. (Naunyn-Schmiedeberg's Arch Pharmacol. 289, 409 to 418, 1975). In this connection, spiral strips of the pulmonary artery of the guinea-pig are depolarised with 40 mmol/1 of potassium after equilibration in calcium-free Tyrode solution. An addition of 0.5 mmol/1 of CaCl2 then induces a contraction. The relaxing action of the test substance is determined by cumulative addition in 1/2 log 10 stepped concentrations. From the concentration-effect curve (abscissa: -log mol/1 of test substance, ordinate: % inhibition of the maximum contraction, average value of 4 to 6 vessel strips), the concentration of the test substance is determined which inhibits the contraction by 50% (=IC50, mol/1). The duration of action of the test substance is given by the time which is needed after the addition of the test substance until the starting value is obtained again.

IC50 [µM] | SMILES | Duration of action in minutes (time needed after addition of the test substance until the starting value is obtained again) [min]
6 | Cl.N=c1c[n+](N2CCCCC2C(=O)O)[n-]o1 (stereo not drawn) [Example 1, 3-(2-Carboxypiperidino)sydnone imine hydrochloride] | > 300
24 | Cl.N=c1c[n+](N2CCC(C(=O)O)CC2)[n-]o1 [Example 2, 3-(4-Carboxypiperidino)sydnone imine hydrochloride] | > 300
20 | Cl.N=c1c[n+](N2CCC[C@H]2C(=O)O)[n-]o1 [Example 3, (S)-3-(2-Carboxypyrrolidino)sydnone imine hydrochloride] | > 300
